Laboratory results taken from patent US20240074986A1, “Methods of Enhancing Non-Viral Gene Therapy” (Spark Therapeutics, Inc., priority 2020, published 2024).

Columns and labels:
CLEC4F+ Kupffer cells = assay: Liver histology, anti-CLEC4F staining, depletion efficacy (Example 3); assay type: in vivo, Balb/C mice; details: for Kupffer cell depletion (CLEC4F+ staining): clodronate IV 50 or 17 mpk, anti-CD115 IP 12 mpk 1 or 4 doses, pexidartinib oral gavage 100 mpk 4 doses, FIG. 5A
Procedure: (§1) Balb/C mice were treated with the immune cell depletion agents clodronate, anti-CD115 antibody (as described in Example 1), or pexidartinib. Clodronate was provided by IV administration at 50 mpk (1.25 mg) or 17 mpk (425 μg), anti-CD115 antibody was provided by IP administration at 12 mpk (300 μg) 1 dose vs 4 doses. Anti-CD115 antibody was as described in Example 1. Pexidartinib was provided by oral gavage administration at 100 mpk (2.5 mg) 4 doses. A no-treatment mice group was used as a control. Each group contained 5 male BALB/c mice.
(§2) After the treatment, mice were euthanized and the liver samples were harvested for histology. Liver samples were stained with either anti-CLEC4F or anti-CD68 mouse antibody. Individual scores of the treatment groups were normalized by the no-treatment group to calculate depletion efficacy.
(§3) Pexidartinib was mixed with mice chow at 400 mg Pex/kg chow. Liver histology was taken after mice were fed with Pex-chow for 7 or 21 days.

CD68+ macrophages = assay: Liver histology, anti-CD68 staining, depletion efficacy (Example 3); assay type: in vivo, Balb/C mice; details: for CD68+ macrophage depletion: clodronate IV 50 or 17 mpk, anti-CD115 IP 12 mpk 1 or 4 doses, pexidartinib oral gavage 100 mpk 4 doses, FIG. 5B
Procedure: as §1, §2, §3

hFIX = hFIX levels in mouse plasma by ELISA after pexidartinib chow and DNA-LNP-5 (Example 4); assay type: in vivo; details: DNA-LNP-5 10 μg per mouse; 1-4 weeks after dosing; Pex chow 7 or 21 days before dosing or regular chow; FIG. 7
Procedure: Pexidartinib was mixed with mice chow at 400 mg Pex/kg chow. In group 2 and group 3, mice chow was replaced with Pex chow at 21 days and 7 days before DNA-LNP-5 dosing.
Mice in group 1 were fed with regular chow throughout the study and served as controls. Mice were dosed with DNA-LNP-5 (10 μg per mouse). LNP-5 (GenVoy™ LNP) was obtained from Precision NanoSystems Inc.) and contained: ionizable lipid at 50%; DSPC at 10%; cholesterol 37.5%; and stabilizer (PEG-Lipid) at 2.5% (see Roces et al., Pharmaceutics, 2020 12, 1095.) DNA was as described in Example 1. hFIX levels in mouse plasma were quantified using ELISA 1-4 weeks after dosing.

INF-γ and/or IL-6 = assay: Plasma pro-inflammatory cytokines by MSD 6 hours post-dose (Example 2); assay type: in vivo, mice (Balb/c); details: 6-hour post-dose plasma; SPK-LNP1 50 μg; FIGS. 3A and 3B
Procedure: The effects of immune cell depletion on cytokine release and on transgene expression were studied using an anti-CD115 antibody in combination with clodronate, which is a toxic agent encapsulated in liposomes to induce monocyte/macrophage apoptosis.
FIX transgene DNA plasmid (50 μg), formulated in lipid nanoparticle (LNP) delivery vehicles (SPK-LNP1), was dosed in mice (n=5; Balb/c; Jackson Laboratory) by intravenous administration alone, or in combination with anti-CD115 antibody and/or clodronate (purchased from Liposoma), as outlined in Table 3. SPK-LNP-1 had the following composition: C12-200 lipid at 35%; DOPE at 16%; cholesterol at 46.5%; and C14-PEG2000 (Avanti® Polar Lipids) at 2.5%. DNA and anti-CD115 antibody were as described in Example 1.
6-hour post-dose plasma samples were analyzed for a panel of pro-inflammatory cytokines using MSD: IL-6, IFN-γ, TNF-α and IL-1β.

Row | Compound | Kupffer cell depletion (CLEC4F+ staining) (CLEC4F+ Kupffer cells) | depletion of CLEC4F+ Kupffer cells (CLEC4F+ Kupffer cells; mixed with mice chow at 400 mg Pex/kg chow, fed 7 or 21 days, FIG. 6B) | CD68+ macrophage depletion (CD68+ macrophages) | depletion of CD68+ macrophages (CD68+ macrophages; mixed with mice chow at 400 mg Pex/kg chow, fed 7 or 21 days, FIG. 6A) | hFIX levels in mouse plasma (hFIX) | cytokine (INF-γ and/or IL-6) levels following DNA-LNP administration (INF-γ and/or IL-6)
1 | FC(F)(F)c1ccc(CNc2ccc(Cc3c[nH]c4ncc(Cl)cc34)cn2)cn1 [Pexidartinib, pexidartinib] | small impact | significant depletion | no impact | significant depletion | a few mice in Pex-treated groups showed detectable expression | –
2 | O=P(O)(O)C(Cl)(Cl)P(=O)(O)O [clodronate] | significant effect | – | significant effect | – | – | moderately reduced
